By IC50 is commonly meant the concentration needed to halve the response being measured.

Structures are written as SMILES. Counter-ions that a name gives are not always drawn. Like-named read-outs stand apart in the source and are kept apart here.

Experiment [1] addresses T1, human mGluR5 (Homo sapiens, UniProt P41594).
T1 construct: expressed in transfected cells
Nature of the experiment: Experiment for receptor function of mGluR5 (Ca2+-dependent fluorescence, FLIPR, CHO-K1 cells stably expressing human mGluR5). Type of experiment: cell-based. The conditions noted are these: L-glutamic acid 10 μM, Fluo-4 fluorescence. A digest of the protocol: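 Fluo-4-loaded CHO-K1 cells pre-incubated 2 min with test substance, then stimulated with L-glutamic acid (final 10 μM) in HBSS, pH 7.4. FLIPR Ca2+ fluorescence normalized to glutamate alone (100%) and glutamate with 10 μM MPEP (0%); IC50 estimated by logistic fit.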

Experiment [2] concerns male Slc:ICR mice. The experiment in a line: Action against pain-related behavior and micturition cycle in mice with cyclophosphamide (CP)-induced acute cystitis. The conditions noted are these: Mus musculus, iv, 0.25 h, CP 300 mg/kg i.p., 15 minutes observation; for inhibition in vivo at 3 mg/kg: test substance 3 mg/kg intravenously 3 hours after CP; for inhibition in vivo at 1 mg/kg: test substance 1 mg/kg intravenously 3 hours after CP. Type of experiment: in vivo. The method, then:
An action of a test substance against visceral pain and frequent urination associated with cystitis, which was induced by intraperitoneal administration (20 mL/kg) of CP (300 mg/kg) to 4 to 5-week-old male Slc:ICR mice (available from Japan SLC, Inc.), was investigated. This experiment was performed according to a method described in European Journal of Pharmacology, 676 (2012), pp. 75-80.
Three hours after the administration of CP, a test substance (1 mg/kg or 3 mg/kg) was intravenously administered, and observation by visual inspection and video recording were performed for 15 minutes immediately thereafter. In the observation by visual inspection, four pain-related behaviors (eye opening, rounded back, leg dragging, and behavior during urination) were scored, each rated on a scale of 0-10, according to the following criteria.
Eye opening (normal: 0 point, sometimes closed or half-open eyes: 5 points, completely closed: 10 points)
Rounded back (normal: 0 point, sometimes crouched: 5 points, crouched at almost all times: 10 points)
Leg dragging (normal: 0 point, leg dragging: 10 points)
Behavior during urination (normal: 0 point, shaking hip in micturition: 10 points)
In addition, the video was played back, and the frequency of licking behavior around the abdomen as a pain-related behavior was scored, rated on a scale of 0-10, according to the following criteria.
Licking behavior around the abdomen (0 to 3 times: 0 point, 4 times to 10 times: 5 points, 11 times or more: 10 points)
Furthermore, the video was played back, and the frequency of urination (urination marks) on a filter paper was counted and taken as an index for micturition cycle.
An average value of the pain-related behavior score of each group (total score of the five items: 50 points at maximum) and an average value of the frequency of urination (urination marks) on the filter paper were determined.
The strength of an analgesic action of the test substance against the CP-induced visceral pain was evaluated in terms of percent inhibition (%) of pain-related behavior score which is calculated as {(A−B)/A×100}, wherein A is an average value of the pain-related behavior score of a medium-administered group, and B is an average value of the pain-related behavior score of a test substance-administered group.
In addition, the strength of a frequent urination inhibitory action of the test substance against the CP-induced frequent urination was evaluated in terms of percent inhibition (%) of the frequency of urination which is calculated as {(C−D)/C×100}, wherein C is an average value of the frequency of urination of a medium-administered group, and D is an average value of the frequency of urination of a test substance-administered group.

Experiment [3] has as its system male Slc:ICR mice. Nature of the experiment: Action against formalin-induced pain behavior in mice. The conditions noted are these: Mus musculus, iv, 0.1 h, test substance 1 mg/kg intravenously, 6 minutes observation, read-out: Percent inhibition of pain-related behavior time (%). Type of experiment: in vivo. The protocol:
4 to 6-week-old male Slc:ICR mice (available from Japan SLC, Inc.) were used. A medium or a test substance (1 mg/kg or 3 mg/kg) was intravenously administered to each mouse, and immediately thereafter, 20 μL of 1% or 5% formalin was subcutaneously administered to a right hind paw of the mouse. Thereafter, the mice were quickly put into an observation cage and measured for the total time (sec) of pain-related behavior (licking or biting behavior against the right hindlimb) during 6 minutes, and an average value of the pain-related behavior time of each group was calculated.
The intensity of an analgesic action of the test substance was evaluated in terms of percent inhibition (%) of pain-related behavior time which is calculated as {(A−B)/A×100}, wherein A is an average value of the pain-related behavior time of a medium-administered group, and B is an average value of the pain-related behavior time of a test substance-administered group.

Setting [4] is: read-out: Percent inhibition of pain-related behavior score (%).
Where [5] appears, read: read-out: Percent inhibition of the frequency of urination (%).

T1 sequence (P41594 21-1212): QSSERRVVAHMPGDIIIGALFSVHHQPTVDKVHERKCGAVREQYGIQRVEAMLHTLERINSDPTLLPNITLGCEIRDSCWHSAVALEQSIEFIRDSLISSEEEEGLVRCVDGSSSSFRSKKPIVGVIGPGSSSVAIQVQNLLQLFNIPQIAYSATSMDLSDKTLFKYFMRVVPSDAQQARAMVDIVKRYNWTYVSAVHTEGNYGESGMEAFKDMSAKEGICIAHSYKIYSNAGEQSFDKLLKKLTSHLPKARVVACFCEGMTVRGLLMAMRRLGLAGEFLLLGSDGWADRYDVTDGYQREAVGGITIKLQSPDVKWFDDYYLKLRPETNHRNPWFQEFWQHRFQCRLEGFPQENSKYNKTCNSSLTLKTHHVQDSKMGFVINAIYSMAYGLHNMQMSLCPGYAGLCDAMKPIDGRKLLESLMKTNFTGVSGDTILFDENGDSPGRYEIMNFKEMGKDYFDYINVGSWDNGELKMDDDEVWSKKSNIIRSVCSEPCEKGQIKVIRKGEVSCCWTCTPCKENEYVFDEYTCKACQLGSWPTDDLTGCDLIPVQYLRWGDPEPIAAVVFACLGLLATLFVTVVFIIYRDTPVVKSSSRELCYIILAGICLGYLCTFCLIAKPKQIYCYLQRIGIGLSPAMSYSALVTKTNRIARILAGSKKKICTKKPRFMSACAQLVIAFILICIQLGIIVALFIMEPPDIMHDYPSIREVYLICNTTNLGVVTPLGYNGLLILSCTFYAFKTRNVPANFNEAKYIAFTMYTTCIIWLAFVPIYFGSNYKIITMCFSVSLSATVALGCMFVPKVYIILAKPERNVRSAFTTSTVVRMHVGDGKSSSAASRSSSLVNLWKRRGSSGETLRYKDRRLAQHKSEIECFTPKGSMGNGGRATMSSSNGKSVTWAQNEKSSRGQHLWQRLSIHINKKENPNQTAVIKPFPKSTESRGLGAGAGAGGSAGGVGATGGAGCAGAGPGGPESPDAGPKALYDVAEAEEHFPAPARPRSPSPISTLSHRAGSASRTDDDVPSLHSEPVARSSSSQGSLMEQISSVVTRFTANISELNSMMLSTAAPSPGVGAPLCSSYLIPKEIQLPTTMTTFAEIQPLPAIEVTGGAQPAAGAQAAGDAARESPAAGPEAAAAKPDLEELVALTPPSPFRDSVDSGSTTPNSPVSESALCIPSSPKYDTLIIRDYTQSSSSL

`Cc1cncc(-c2cc(OCc3ncccc3F)nc3c2CCCC3)n1` [Example 214, 2-[(3-Fluoropyridin-2-yl)methoxy]-4-(6-methylpyrazin-2-yl)-5,6,7,8-tetrahydroquinoline] returned an IC50 in experiment [1] of 131 nM. The inhibition in vivo at 3 mg/kg in experiment [2] (setting [4]) was 44.2%; in experiment [2] (setting [5]) it was 25.3%. In experiment [3] (5% formalin), the inhibition in vivo at 1 mg/kg was 55.3%.
`Fc1cccnc1COc1cc(-c2cncnc2)c2c(n1)CCC2` [Example 26, 2-[(3-Fluoropyridin-2-yl)methoxy]-4-(pyrimidin-5-yl)-6,7-dihydro-5H-cyclopenta[b]pyridine] yielded an IC50 in experiment [1] of 73.6 nM. Besides, the inhibition in vivo at 3 mg/kg came to 60.5% in experiment [2] (setting [4]) and 57.3% in experiment [2] (setting [5]). In addition, the inhibition in vivo at 1 mg/kg in experiment [3] (1% formalin) worked out at 71.9%.
Take `Fc1cnc(COc2cc(-c3cncnc3)c3c(n2)CCCC3)c(F)c1` [Example 277, 2-[(3,5-Difluoropyridin-2-yl)methoxy]-4-(pyrimidin-5-yl)-5,6,7,8-tetrahydroquinoline]: the inhibition in vivo at 3 mg/kg in experiment [2] (setting [4]) worked out at 40.4%; in experiment [2] (setting [5]), 24.8%. For the same molecule, in experiment [3] (5% formalin), the inhibition in vivo at 1 mg/kg is 60.9%.
On to `N#Cc1nccnc1-c1cc(OCc2ccccn2)nc2c1CCCC2` [Example 198, 3-[2-(Pyridin-2-ylmethoxy)-5,6,7,8-tetrahydroquinolin-4-yl]pyrazine-2-carbonitrile hydrochloride], for which the IC50 in experiment [1] amounted to 56.3 nM. In addition, the results for the inhibition in vivo at 3 mg/kg in experiment [2] (setting [4]) and in experiment [2] (setting [5]) were 40.4% and 37.6%, respectively. Besides, the inhibition in vivo at 1 mg/kg in experiment [3] (1% formalin) came out at 24.7%.
Consider `N#Cc1ccc(-c2cc(OCc3ccc(F)cn3)nc3c2CCC3)cn1` [Example 9, 5-{2-[(5-Fluoropyridin-2-yl)methoxy]-6,7-dihydro-5H-cyclopenta[b]pyridin-4-yl}pyridine-2-carbonitrile], for which the inhibition in vivo at 1 mg/kg in experiment [2] (setting [4]) amounted to 23.9%; in experiment [2] (setting [5]), 36.3%; in experiment [3] (5% formalin), 39.1%.
In experiment [1], `N#Cc1ncc(-c2cc(OCc3ccccn3)nc3c2CCCC3)cn1` [Example 173, 5-[2-(Pyridin-2-ylmethoxy)-5,6,7,8-tetrahydroquinolin-4-yl]pyrimidine-2-carbonitrile hydrochloride] displayed an IC50 of 161 nM. Also, the inhibition in vivo at 3 mg/kg in experiment [2] (setting [4]) is 63.3%; in experiment [2] (setting [5]) it was 52.6%. The inhibition in vivo at 1 mg/kg in experiment [3] (5% formalin) amounted to 65.4%.
For the molecule `OCc1cncc(-c2cc(OCc3ccc(F)cn3)nc3c2CCCC3)n1` [Example 216, (6-{2-[(5-Fluoropyridin-2-yl)methoxy]-5,6,7,8-tetrahydroquinolin-4-yl}pyrazin-2-yl)methanol], the inhibition in vivo at 3 mg/kg was found to be 28.2% in experiment [2] (setting [4]) and 30.1% in experiment [2] (setting [5]). In experiment [3] (5% formalin), the inhibition in vivo at 1 mg/kg came out at 41.2%.
`Cc1ncc(-c2cc(OCc3ncccc3F)nc3c2CCCC3)cn1` [Example 187, 2-[(3-Fluoropyridin-2-yl)methoxy]-4-(2-methylpyrimidin-5-yl)-5,6,7,8-tetrahydroquinoline] returned an IC50 in experiment [1] of 36 nM. Moreover, the results for the inhibition in vivo at 1 mg/kg in experiment [2] (setting [4]), in experiment [2] (setting [5]) and in experiment [3] (5% formalin) were 22.9%, 51.6% and 59.4%, respectively.
Take `COCc1ncc(-c2cc(OCc3ccccn3)nc3c2CCCC3)s1` [Example 227, 4-[2-(Methoxymethyl)-1,3-thiazol-5-yl]-2-(pyridin-2-ylmethoxy)-5,6,7,8-tetrahydroquinoline]: the midpoint of inhibition in experiment [1], the IC50, lay at 36.2 nM. In addition, the inhibition in vivo at 1 mg/kg in experiment [3] (1% formalin) worked out at 25.6%.
On the same counts, the results for `OCc1ncc(-c2cc(OCc3ccccn3)nc3c2CCCC3)s1` [Example 226, {5-[2-(Pyridin-2-ylmethoxy)-5,6,7,8-tetrahydroquinolin-4-yl]-1,3-thiazol-2-yl}methanol hydrochloride] are 52.1 nM and 26.8%.
On the same counts, the results for `Fc1ncccc1-c1cc(OCc2ccccn2)nc2c1CCC2` [Example 2, 4-(2-Fluoropyridin-3-yl)-2-(pyridin-2-ylmethoxy)-6,7-dihydro-5H-cyclopenta[b]pyridine hydrochloride] are 5.26 nM and 47%.

For the origin of these results see US20150225404A1, “PYRIDINE DERIVATIVE AND MEDICINE” (NIPPON SHINYAKU CO., LTD., priority 2012, published 2015).
